Source: the NIST ThermoML archive (doi:10.1007/s10765-010-0860-3)

Tests used:
[1] = xn = mol fraction of the nth substance listed; conditions: 101 kPa, Liquid; for viscosity: Capillary tube (Ostwald / Ubbelohde) method; for mass density: Pycnometric method
[2] = 101 kPa, Liquid; for viscosity: Capillary tube (Ostwald / Ubbelohde) method; for mass density: Pycnometric method

C1COCCO1 [1,4-dioxane] + CC1COC(=O)O1
[1], x2 = 0
Conditions	mass density [kg/m3]	viscosity [mPa·s]
288.15 K	1039.1	1.44
298.15 K	1027.92	1.185
308.15 K	1016.55	1.029

C1CCOC1 [tetrahydrofuran] + CC1COC(=O)O1
[1], x2 = 0
Conditions	mass density [kg/m3]	viscosity [mPa·s]
288.15 K	892.93	0.508
298.15 K	881.96	0.462
308.15 K	870.85	0.426

CC(=O)CC(C)=O [2,4-pentanedione]
[2]
Conditions	mass density [kg/m3]	viscosity [mPa·s]
288.15 K	980.34	0.741
298.15 K	972.18	0.67
308.15 K	963.46	0.609

C1COCCO1 [1,4-dioxane]
[2]
Conditions	mass density [kg/m3]	viscosity [mPa·s]
288.15 K	1039.1	1.44
298.15 K	1027.92	1.185
308.15 K	1016.55	1.029

CC1COC(=O)O1 (configuration not stated) [4-methyl-1,3-dioxolan-2-one]
[2]
Conditions	mass density [kg/m3]	viscosity [mPa·s]
288.15 K	1208.67	3.086
298.15 K	1197.58	2.5
308.15 K	1187.16	2.073

C1CCOC1 [tetrahydrofuran]
[2]
Conditions	mass density [kg/m3]	viscosity [mPa·s]
288.15 K	892.93	0.508
298.15 K	881.96	0.462
308.15 K	870.85	0.426

CC1COC(=O)O1 (configuration not stated) [4-methyl-1,3-dioxolan-2-one] + CC(=O)CC(C)=O
[1], x1 = 1
Conditions	mass density [kg/m3]	viscosity [mPa·s]
288.15 K	1208.67	3.086
298.15 K	1197.58	2.5
308.15 K	1187.16	2.073
